Experimental data as given in patent US4925846A, “2-thiazolyl-imidazo[1,2,-a]pyrimidines” (Roussel Uclaf, priority 1986, dated 1990).

Tests used:
benzodiazepine receptor = experiment: Benzodiazepine receptor binding (FRB), [3H]-flunitrazepam displacement; conditions: 0.6 nM [3H] flunitrazepam, rat forebrain membrane preparations; read-out: FRB (IC50, inhibition of specific binding of [3H]-flunitrazepam)
Protocol: The compounds of formula I are agents which interact with benzodiazepine receptors in the brain, and are useful as minor tranquillizers and for the treatment of obesity or cognitive impairment. Screening for benzodiazepine receptor binding (FRB) was carried out by the method described in published British Patent No. 2,128,989. The values given in Table II are expressed in terms of IC50 (nM).
The affinity of the compounds for the benzodiazepine receptor was assessed using the radioligand [^3 H]-flunitrazepam by modification of the original radioceptor binding method of SQUIRES et al [Nature, (1977), Vol. 266, p. 732].

DBA2 mice = experiment: Potentiation of threshold seizures induced by audiogenic stimulation in DBA2 mice; assay type: in vivo; conditions: Mus musculus, ip, 0.5 h, i.p., 30 mins pretest, read-out: ED50, potentiation of audiogenic threshold seizures to full tonic seizures
Protocol: (§1) Benzodiazepine inverse agonists properties are indicated by the following tests.
(a) Potentiation of threshold seizures induced by audiogenic stimulation in DBA2 mice [Jensen et al--Life Sciences 33, 393-9 (1983)], DBA2 mice are subjected to audio stimulation. The threshold seizure characteristics (myoclonus, running) are potentiated by active compounds to full tonic seizures and ED50 is calculated.

CD1 mice = experiment: Potentiation of seizures induced by subcutaneous injection of leptazol to CD1 mice; assay type: in vivo; conditions: Mus musculus, ip, 0.5 h, i.p., 30 mins pretest, read-out: ED50, potentiation of leptazol-induced tonic seizures
Protocol: as §1
(b) Potentiation of seizures induced by subcutaneous injection of leptazol to CD1 mice.
A dose of leptazol is selected to give 10 to 20% tonic seizures in untreated CD1 mice. Active compounds increase the percentage of tonic seizures and the ED50 is calculated by the method of Lichfield and Wilcoxon (J. Pharmacol Exp. Ther. (1949) 96, 99).

Wistar rats = experiment: Induction of suprahyoid muscle twitching in urethane anaesthetised Wistar rats; assay type: in vivo; conditions: Rattus norvegicus, ip, urethane anaesthetised Wistar rats pretreated with nialamide; read-out: MED, increase of amplitude and/or rate of suprahyoid muscle twitch
Excerpt: as §1
(c) […] of suprahyoid muscle twitching in urethane anaesthetised Wistar rats [James & Gardner--Europ. J. Pharmacol. 113, 223-8 (1985)]. Wistar rats pretreated with nialamide are anaesthetised with urethane and the suprahyoid muscles exposed. These muscles spontaneously twitch and active compounds increase the amplitude and/or rate of twitch.

Row | SMILES | IC50 (benzodiazepine receptor) | further results
1 | C=CCc1c(OC)nc2nc(-c3nc(C)cs3)cn2c1C [Example 8, 6-Allyl-7-methoxy-5-methyl-2-(4-methylthiazol-2-yl)imidazo[1,2-a]pyrimidine] | 0.1 µM | 
2 | CCc1c(OC)nc2nc(-c3nc(C)c(C)s3)cn2c1C [Example 3, 2-(4,5-Dimethylthiazol-2-yl)-6-ethyl-7-methoxy-5-methylimidazo[1,2-a]pyrimidine] | 2.5 µM | 
3 | CCOC(=O)c1csc(-c2cn3c(C)c(CC)c(OC)nc3n2)n1 [Example 4, Ethyl 2-(6-ethyl-7-methoxy-5-methylimidazo[1,2-a]pyrimidin-2-yl)-thiazole-4-carboxylate] | 2.8 µM | 
4 | COc1nc2nc(-c3nc(C)cs3)cn2c2c1CCCC2 [Example 7, 5-Methoxy-2-(4-methylthiazol-2-yl)-6,7,8,9-tetrahydroimidazo[1,2-a]quinazoline] | 0.022 µM | 
5 | CCc1c(OC)nc2nc(-c3nc(C)cs3)cn2c1C [Example 1, 6-Ethyl-7-methoxy-5-methyl-2-(4-methylthiazol-2-yl)-imidazo[1,2-a]pyrimidine] | 0.112 µM | ED50 (DBA2 mice): 3 mg/kg; ED50 (CD1 mice): 50 mg/kg; minimal effective dose (Wistar rats): 10 mg/kg
6 | CCc1c(SC)nc2nc(-c3nc(C)cs3)cn2c1C [Example 5, 6-Ethyl-5-methyl-2-(4-methylthiazol-2-yl)-7-methylthioimidazo[1,2-a]pyrimidine] | 0.08 µM | 
7 | CCc1c(OC)nc2nc(-c3nc(C(F)(F)F)cs3)cn2c1C [Example 6, 6-Ethyl-7-methoxy-5-methyl-2-(4-trifluoromethylthiazol-2-yl)-imidazol[1,2-a]pyrimidine] | 2 µM | 
8 | CCc1c(OC)nc2nc(-c3nccs3)cn2c1C [Example 10, 6-Ethyl-7-methoxy-5-methyl-2-(thiazol-2-yl)imidazo[1,2-a]pyrimidine] | 0.2 µM | 
9 | CCc1csc(-c2cn3c(C)c(CC)c(OC)nc3n2)n1 [Example 2, 6-Ethyl-2-(4-ethylthiazol-2-yl)-7-methoxy-5-methylimidazo[1,2-a]pyrimidine] | 0.22 µM | 
10 | CCCc1c(OC)nc2nc(-c3nc(C)cs3)cn2c1C [Example 9, 7-Methoxy-5-methyl-2-(4-methylthiazol-2-yl)-6-propylimidazo[1,2-a]pyrimidine] | 0.1 µM | 
